Results on five molecules are retold here after ChEMBL document CHEMBL1134179, “Equilibrium and kinetics studies of transnitrosation between S-nitrosothiols and thiols” (Bioorg Med Chem Lett, 2001).

Structures are written as SMILES.

The data set in a line: pKa value was determined. It is filed as physicochemical.
A word on the pKa: it is the pH at which an ionisable group is half protonated. Low readings indicate a stronger acid or weaker base, high ones a weaker acid or stronger base. On to `CCOC(=O)[C@@H](N)CS`, for which the pKa came to 6.5.

The molecule `CC(=O)N[C@@H](CS)C(=O)O` [ACETYLCYSTEINE] yielded a pKa of 9.52.

The molecule `N[C@@H](CCC(=O)N[C@@H](CS)C(=O)NCC(=O)O)C(=O)O` [GLUTATHIONE] had a pKa of 8.75.

Turning to `CC(=O)NC(C(=O)O)C(C)(C)S` (stereo not given) [N-ACETYL PENICILLAMINE], the pKa is 9.9.

Regarding `CC(C)(S)[C@@H](N)C(=O)O` [PENICILLAMINE], the pKa was determined as 8.53.
